Assay [1] has as its system Escherichia coli. Description: Antibacterial activity against Escherichia coli upto 50 ug/mL. Format: functional, organism-based.
For assay [2], the target named is Sulfonylurea receptor 1, Kir6.2 (Homo sapiens) (UniProt Q14654+Q09428). Kind of assay: Binding affinity to sulfonylurea receptor in pancreatic islet beta cell membranes.
Assay [3] is described as follows: Reduction of blood glucose level in alloxan induced diabetic mice at 200 mg/kg. Format: functional, organism-based. Particulars: Mus musculus, target entry is the homologue from another species. Also noted: dose 200 mg/kg.
The test system of assay [4] is Escherichia coli. Description: Antibacterial activity against Escherichia coli. Format: functional.

Calls of active or inactive are those of the source.

As to `CC[N+]12CCc3cc4c(cc3C1Cc1ccc(OC)c(OC)c1C2)OCO4` (stereo unspecified), the result (with Escherichia coli [1]; in assay [2]) was inactive.

Take `COc1ccc2c(c1OC)C[N+]1([O-])CCc3cc4c(cc3C1C2)OCO4` (stereo unspecified): the Activity in assay [3] came out at 23 mg/dL. Further, the result in the assay with Escherichia coli [1] was inactive. Moreover, in assay [2], the outcome was Active.

Regarding `c1ccc2c(c1)CC1c3cc4c(cc3CCN1C2)OCO4` (stereo unspecified), the result (in the assay on Escherichia coli [1]; in assay [2]) was inactive.

As to `COc1ccc2c[n+]3c(cc2c1)-c1cc2c(cc1CC3)OCO2`, the outcome (in the assay on Escherichia coli [1]; in assay [2]) was inactive.

In the case of `COc1ccc2c(c1OC)CN1CCc3cc4c(cc3[C@@H]1C2)OCO4`, the outcome (with Escherichia coli [1]; in assay [2]) was inactive.

In general, MIC refers to the smallest concentration in the dilution series that meets the test's criterion for growth inhibition. Low values mean greater potency, high ones weaker potency. As to `COc1ccc2cc3[n+](cc2c1OC)CCc1cc2c(cc1-3)OCO2.[Cl-]` [BERBERINE CHLORIDE], in assay [3], the Activity stood at 61 mg/dL. In the assay with Escherichia coli [4], this compound had an MIC of 5 µg/mL. In addition, in assay [2], the result was Active.

On to `COc1ccc2cc3[n+](cc2c1O)CCc1cc2c(cc1-3)OCO2`, for which, in assay [3], the Activity was found to be 12 mg/dL. Also, the result in the assay on Escherichia coli [1] was inactive. The outcome in assay [2] was Active.

Regarding `c1ccc2c[n+]3c(cc2c1)-c1cc2c(cc1CC3)OCO2`, the Activity in assay [3] was 67 mg/dL. For the same compound, the result with Escherichia coli [1] was inactive. Also, the result in assay [2] was Active.

For `COc1ccc2cc3[n+](cc2c1OC)CCc1cc(O)c(O)cc1-3`, the outcome (with Escherichia coli [1]; in assay [2]) was inactive.

As for `COc1ccc2c(c1OC)C[N+]1(C)CCc3cc4c(cc3C1C2)OCO4` (stereo unspecified), the result (in the assay with Escherichia coli [1]; in assay [2]) was inactive.

`c1ccc(C[N+]23CCc4cc5c(cc4C2Cc2ccccc2C3)OCO5)cc1` (stereo unspecified): the result in the assay on Escherichia coli [1] was inactive. The outcome in assay [2] was Active.

As for `COc1cccc2cc3[n+](cc12)CCc1cc2c(cc1-3)OCO2`, the result (in the assay on Escherichia coli [1]; in assay [2]) was inactive.

For the compound `COc1ccc2cc3[n+](cc2c1OC)CCc1cc(OC(C)=O)c(OC(C)=O)cc1-3`, the result (with Escherichia coli [1]; in assay [2]) was inactive.

In assay [3], `COc1ccc2c(c1)C(=O)N(CCc1ccc(S(=O)(=O)NC(=O)NC3CCCCC3)cc1)C(=O)C2(C)C` displayed an Activity of 162 mg/dL. Also, in assay [2], the result was Active.

Consider `c1ccc(COc2ccc3c[n+]4c(cc3c2)-c2cc3c(cc2CC4)OCO3)cc1`, for which the outcome (in the assay on Escherichia coli [1]; in assay [2]) was inactive.

Turning to `COc1ccc2cc3[n+](cc2c1)CCc1cc2c(cc1-3)OCO2`, the outcome (with Escherichia coli [1]; in assay [2]) was inactive.

In assay [3], `COc1ccc2c(c1OC)C[N+]1(Cc3ccccc3)CCc3cc4c(cc3C1C2)OCO4` (stereo unspecified) returned an Activity of 146 mg/dL. Also, the outcome in the assay on Escherichia coli [1] was inactive. In addition, the result in assay [2] was Active.

In the case of `COc1cc2c(cc1OC)-c1cc3ccc(OC)c(OC)c3c[n+]1CC2`, the result (with Escherichia coli [1]; in assay [2]) was inactive.

These data come from ChEMBL document CHEMBL1139034, “Synthesis and antihyperglycemic evaluation of various protoberberine derivatives” (2006).
